# Experimental data reported in patent publication US6706740B2, “Fungicidal heterocyclic aromatic amides and their compositions, methods of use and preparation” (Dow AgroSciences LLC, priority 1999, dated 2004).
# System: Magnaporthe grisea (Pyricularia oryzae—PYRIOR)
# Assay: microbe, parasite or virus in culture
# Format: cell-based
# Settings: Pyricularia oryzae, read-out: PYRIOR in vitro Growth Inhibition
row,Compound,inhibition at 25 ppm [%]
1,COc1ccnc(C(=O)NC2C3(C)CCC(C3)C2(C)C)c1O (stereo not drawn) [Compound 288],< 80
2,COc1ccnc(C(=O)N[C@H]2COC(=O)[C@H](Cc3ccccc3)[C@@H](OC(=O)Cc3ccccc3)[C@H](C)OC2=O)c1O [Compound 395],< 80
3,COc1ccnc(C(=O)N[C@H]2COC(=O)[C@H](Cc3ccccc3)[C@@H](OC(=O)C(C)C)[C@H](C)OC2=O)c1OC(=O)c1ccco1 [Compound 673],< 80

# System: Rhizoctonia solani (RHIZSO)
# Assay: microbe, parasite or virus in culture
# Format: cell-based
# Settings: Rhizoctonia solani, read-out: RHIZSO in vitro Growth Inhibition
row,Compound,inhibition at 25 ppm [%]
1,COc1ccnc(C(=O)NC2C3(C)CCC(C3)C2(C)C)c1O (stereo not drawn) [Compound 288],> 80
2,COc1ccnc(C(=O)N[C@H]2COC(=O)[C@H](Cc3ccccc3)[C@@H](OC(=O)Cc3ccccc3)[C@H](C)OC2=O)c1O [Compound 395],< 80
3,COc1ccnc(C(=O)N[C@H]2COC(=O)[C@H](Cc3ccccc3)[C@@H](OC(=O)C(C)C)[C@H](C)OC2=O)c1OC(=O)c1ccco1 [Compound 673],< 80

# System: Mycosphaerella graminicola (Septoria tritici—SEPTTR)
# Assay: In vitro fungal growth inhibition, Mycosphaerella graminicola (SEPTTR)
# Format: cell-based
# Settings: Zymoseptoria tritici, read-out: SEPTTR in vitro Growth Inhibition
row,Compound,inhibition at 25 ppm [%]
1,COc1ccnc(C(=O)N[C@H]2COC(=O)[C@H](Cc3ccccc3)[C@@H](OC(=O)Cc3ccccc3)[C@H](C)OC2=O)c1O [Compound 395],> 80

# Same assay, conditions: Zymoseptoria tritici; 25 ppm in growth medium; read-out: SEPTTR in vitro Growth Inhibition
row,Compound,inhibition at 25 ppm [%]
1,COc1ccnc(C(=O)NC2C3(C)CCC(C3)C2(C)C)c1O (stereo not drawn) [Compound 288],< 80
2,COc1ccnc(C(=O)N[C@H]2COC(=O)[C@H](Cc3ccccc3)[C@@H](OC(=O)C(C)C)[C@H](C)OC2=O)c1OC(=O)c1ccco1 [Compound 673],< 80

# System: Stagonospora nodorum (Leptosphaeria nodorum—LEPTNO)
# Assay: In vitro fungal growth inhibition, Stagonospora nodorum (LEPTNO)
# Format: cell-based
# Settings: Leptosphaeria, read-out: LEPTNO in vitro Growth Inhibition
row,Compound,inhibition at 25 ppm [%]
1,COc1ccnc(C(=O)N[C@H]2COC(=O)[C@H](Cc3ccccc3)[C@@H](OC(=O)Cc3ccccc3)[C@H](C)OC2=O)c1O [Compound 395],> 80

# Same assay, conditions: Leptosphaeria; 25 ppm in growth medium; read-out: LEPTNO in vitro Growth Inhibition
row,Compound,inhibition at 25 ppm [%]
1,COc1ccnc(C(=O)NC2C3(C)CCC(C3)C2(C)C)c1O (stereo not drawn) [Compound 288],< 80
2,COc1ccnc(C(=O)N[C@H]2COC(=O)[C@H](Cc3ccccc3)[C@@H](OC(=O)C(C)C)[C@H](C)OC2=O)c1OC(=O)c1ccco1 [Compound 673],< 80

# System: Ustilago maydis (USTIMA)
# Assay: microbe, parasite or virus in culture
# Format: cell-based
# Settings: Mycosarcoma maydis, read-out: USTIMA in vitro Growth Inhibition
row,Compound,inhibition at 25 ppm [%]
1,COc1ccnc(C(=O)NC2C3(C)CCC(C3)C2(C)C)c1O (stereo not drawn) [Compound 288],< 80
2,COc1ccnc(C(=O)N[C@H]2COC(=O)[C@H](Cc3ccccc3)[C@@H](OC(=O)Cc3ccccc3)[C@H](C)OC2=O)c1O [Compound 395],> 80
3,COc1ccnc(C(=O)N[C@H]2COC(=O)[C@H](Cc3ccccc3)[C@@H](OC(=O)C(C)C)[C@H](C)OC2=O)c1OC(=O)c1ccco1 [Compound 673],< 80

# System: Phytophthora infestans (PHYTIN)
# Assay: microbe, parasite or virus in culture
# Format: cell-based
# Settings: Phytophthora infestans, read-out: PHYTIN in vitro Growth Inhibition
row,Compound,inhibition at 25 ppm [%]
1,COc1ccnc(C(=O)NC2C3(C)CCC(C3)C2(C)C)c1O (stereo not drawn) [Compound 288],< 80
2,COc1ccnc(C(=O)N[C@H]2COC(=O)[C@H](Cc3ccccc3)[C@@H](OC(=O)Cc3ccccc3)[C@H](C)OC2=O)c1O [Compound 395],< 80
3,COc1ccnc(C(=O)N[C@H]2COC(=O)[C@H](Cc3ccccc3)[C@@H](OC(=O)C(C)C)[C@H](C)OC2=O)c1OC(=O)c1ccco1 [Compound 673],< 80

# System: Phytophthora infestans—PHYTIN
# Assay: whole plant or invertebrate
# Format: in vivo
# Settings: Phytophthora, in Solanum lycopersicum, 24 h, read-out: PHYTIN in vivo 1 Day Protectant
row,Compound,pest or weed control at 100 ppm [%]
1,COc1ccnc(C(=O)NC2C3(C)CCC(C3)C2(C)C)c1O (stereo not drawn) [Compound 288],< 25
2,COc1ccnc(C(=O)N[C@H]2COC(=O)[C@H](Cc3ccccc3)[C@@H](OC(=O)Cc3ccccc3)[C@H](C)OC2=O)c1O [Compound 395],< 25
3,COc1ccnc(C(=O)N[C@H]2COC(=O)[C@H](Cc3ccccc3)[C@@H](OC(=O)C(C)C)[C@H](C)OC2=O)c1OC(=O)c1ccco1 [Compound 673],< 25

# System: Puccinia recondita—PUCCRT
# Assay: Brown Rust of Wheat, in vivo whole plant, 24 Hour Protectant
# Settings: 100 ppm spray, wheat, 24 hour protectant, % control of fungal infection vs untreated plants
row,Compound,PUCCRT in vivo 1 Day Protectant
1,COc1ccnc(C(=O)N[C@H]2COC(=O)[C@H](Cc3ccccc3)[C@@H](OC(=O)C(C)C)[C@H](C)OC2=O)c1OC(=O)c1ccco1 [Compound 673],+ +

# Same assay, conditions: Puccinia, 24 h, read-out: PUCCRT in vivo 1 Day Protectant
row,Compound,pest or weed control at 100 ppm [%]
1,COc1ccnc(C(=O)N[C@H]2COC(=O)[C@H](Cc3ccccc3)[C@@H](OC(=O)Cc3ccccc3)[C@H](C)OC2=O)c1O [Compound 395],25 to 74

# Same assay, conditions: Puccinia; 100 ppm spray, 24 hour protectant, wheat; control of fungal infection vs untreated plants; read-out: PUCCRT in vivo 1 Day Protectant
row,Compound,pest or weed control at 100 ppm [%]
1,COc1ccnc(C(=O)NC2C3(C)CCC(C3)C2(C)C)c1O (stereo not drawn) [Compound 288],< 25

# System: Erysiphe graminis—ERYSGT
# Assay: Powdery Mildew of Wheat, in vivo whole plant, 24 Hour Protectant
# Settings: Erysiphe, 24 h, read-out: ERYSGT in vivo 1 Day Protectant
row,Compound,pest or weed control at 100 ppm [%]
1,COc1ccnc(C(=O)N[C@H]2COC(=O)[C@H](Cc3ccccc3)[C@@H](OC(=O)Cc3ccccc3)[C@H](C)OC2=O)c1O [Compound 395],< 25

# Same assay, conditions: Erysiphe; 100 ppm spray, 24 hour protectant, wheat; control of fungal infection vs untreated plants; read-out: ERYSGT in vivo 1 Day Protectant
row,Compound,pest or weed control at 100 ppm [%]
1,COc1ccnc(C(=O)NC2C3(C)CCC(C3)C2(C)C)c1O (stereo not drawn) [Compound 288],< 25

# Same assay, conditions: Erysiphe; 100 ppm spray, wheat, 24 hour protectant, % control of fungal infection vs untreated plants; read-out: ERYSGT in vivo 1 Day Protectant
row,Compound,pest or weed control at 100 ppm [%]
1,COc1ccnc(C(=O)N[C@H]2COC(=O)[C@H](Cc3ccccc3)[C@@H](OC(=O)C(C)C)[C@H](C)OC2=O)c1OC(=O)c1ccco1 [Compound 673],< 25

# System: Septoria tritici—SEPTTR
# Assay: Leaf Blotch of Wheat, in vivo whole plant, 24 Hour Protectant
# Settings: 100 ppm spray, wheat, 24 hour protectant, % control of fungal infection vs untreated plants
row,Compound,SEPTTR in vivo 1 Day Protectant
1,COc1ccnc(C(=O)N[C@H]2COC(=O)[C@H](Cc3ccccc3)[C@@H](OC(=O)C(C)C)[C@H](C)OC2=O)c1OC(=O)c1ccco1 [Compound 673],+ +

# Same assay, conditions: Zymoseptoria tritici, 24 h, 100 ppm spray, 24 hour protectant, wheat; control of fungal infection vs untreated plants; read-out: SEPTTR in vivo 1 Day Protectant
row,Compound,pest or weed control at 100 ppm [%]
1,COc1ccnc(C(=O)NC2C3(C)CCC(C3)C2(C)C)c1O (stereo not drawn) [Compound 288],25 to 74

# Same assay, conditions: Zymoseptoria tritici, 24 h, read-out: SEPTTR in vivo 1 Day Protectant
row,Compound,pest or weed control at 100 ppm [%]
1,COc1ccnc(C(=O)N[C@H]2COC(=O)[C@H](Cc3ccccc3)[C@@H](OC(=O)Cc3ccccc3)[C@H](C)OC2=O)c1O [Compound 395],25 to 74

# System: Leptosphaeria nodorum—LEPTNO
# Assay: Glume Blotch of Wheat, in vivo whole plant, 24 Hour Protectant
# Settings: 100 ppm spray, wheat, 24 hour protectant, % control of fungal infection vs untreated plants
row,Compound,LEPTNO in vivo 1 Day Protectant
1,COc1ccnc(C(=O)N[C@H]2COC(=O)[C@H](Cc3ccccc3)[C@@H](OC(=O)C(C)C)[C@H](C)OC2=O)c1OC(=O)c1ccco1 [Compound 673],+ +

# Same assay, conditions: Leptosphaeria, 24 h, read-out: LEPTNO in vivo 1 Day Protectant
row,Compound,pest or weed control at 100 ppm [%]
1,COc1ccnc(C(=O)N[C@H]2COC(=O)[C@H](Cc3ccccc3)[C@@H](OC(=O)Cc3ccccc3)[C@H](C)OC2=O)c1O [Compound 395],25 to 74

# Same assay, conditions: Leptosphaeria; 100 ppm spray, 24 hour protectant, wheat; control of fungal infection vs untreated plants; read-out: LEPTNO in vivo 1 Day Protectant
row,Compound,pest or weed control at 100 ppm [%]
1,COc1ccnc(C(=O)NC2C3(C)CCC(C3)C2(C)C)c1O (stereo not drawn) [Compound 288],25 to 74
